Test results taken from PMC7450941, “Establishing a sensitive fluorescence-based quantification method for cyclic nucleotides” (BMC Biotechnology, 2020).

Molecular target: T1, Epac1-camps-His6 (Homo sapiens, UniProt O95398)
T1 construct: made in house; host or cells: E. coli BL21(DE3)-CodonPlus-RIL / BL21(DE3)-pLysS, pET11a
T1 sequence (O95398 199-357 limits assumed): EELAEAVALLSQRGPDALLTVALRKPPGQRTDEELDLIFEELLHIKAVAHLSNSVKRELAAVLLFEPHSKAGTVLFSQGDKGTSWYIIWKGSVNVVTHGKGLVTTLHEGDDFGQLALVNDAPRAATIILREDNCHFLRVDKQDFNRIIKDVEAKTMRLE
Experiment: cell-free FRET assay with purified Epac1-camps-His6 in 96 multi-well plates (EYFP/ECFP ratio R/R0)
Assay type: biochemical
Conditions: 96 MWP, plate reader
Description: To assess the functionality of the purified Epac1-camps-His6 protein, the protein was diluted to 0.7 μM and 90 μl of this solution was added to each well of a 96 multi well plate (MWP). Fluorescence emission in each well was measured in a plate reader. Excitation was at 430 nm and emission was recorded at 475 nm (ECFP) and 530 nm (EYFP). […] The final volume in each well was 100 μl, and final concentrations of cyclic nucleotides ranged from 10^− 9 - 10^− 4 M. Incubation of the sensor protein with its ligands was for 30 min. at room temperature. […] Normalized data were plotted against cyclic nucleotide concentrations and EC50 values were calculated. […] Mean values with standard deviations were obtained from four-fold determinations for each cyclic nucleotide.
Purified Epac1-camps-His6 protein was diluted to a concentration of 0.7 μM in IS buffer and 90 μl of the sample was added to each well of a 96 multi well plate. Excitation was at 430 nm and emission was recorded at 475 nm (ECFP) and 530 nm (EYFP). […] The final volume was 100 μl and final concentrations of cyclic nucleotides ranged from 10^− 9 - 10^− 4 M. The EYFP/ECFP ratio (R) for each well was calculated and normalized to the ratio of the basal fluorescence in the absence of cyclic nucleotides (R0). […] EC50 values were calculated with a four-parameter nonlinear regression using GraphPad Prism v5.04 […]

- EC50: 7.8 µM
SMILES: Nc1nc2c(ncn2[C@@H]2O[C@@H]3COP(=O)(O)O[C@H]3[C@H]2O)c(=O)[nH]1 [cGMP, cyclic guanosine 3′,5′-monophosphate]
